From BindingDB's records for doi:10.1016/j.bioorg.2013.06.006 (North-West University, Private Bag X6001, Potchefstroom …, 2013)

Biological target: Adenosine receptor A2a (Rattus norvegicus, UniProt P30543)
Sequence (P30543 whole entry): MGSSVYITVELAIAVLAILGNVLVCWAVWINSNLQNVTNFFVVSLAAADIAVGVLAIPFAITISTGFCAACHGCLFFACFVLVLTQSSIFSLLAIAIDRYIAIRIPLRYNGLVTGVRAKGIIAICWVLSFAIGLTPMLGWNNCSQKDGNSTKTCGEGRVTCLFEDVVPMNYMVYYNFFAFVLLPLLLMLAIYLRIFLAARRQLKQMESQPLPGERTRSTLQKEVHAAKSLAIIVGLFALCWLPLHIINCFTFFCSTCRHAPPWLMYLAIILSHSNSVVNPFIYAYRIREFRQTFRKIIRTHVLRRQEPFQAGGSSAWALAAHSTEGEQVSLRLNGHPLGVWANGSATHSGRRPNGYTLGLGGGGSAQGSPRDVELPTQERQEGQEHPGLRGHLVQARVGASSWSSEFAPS

`Cn1c(=O)c2c(nc(/C=C/c3cccc(C(F)(F)F)c3)n2C)n(C)c1=O` and `CCn1c(/C=C/c2cccc(C(F)(F)F)c2)nc2c1c(=O)n(C)c(=O)n2C` [(E)-8-[3-(Trifluoromethyl)styryl]-1,3-dimethyl-7-ethylxanthine (5f)] are within 1.5-fold of each other in Ki: 125 nM for the first, 93.8 nM for the second.

Compared with `Cn1c(=O)c2c(nc(COc3ccccc3)n2C)n(C)c1=O`, `CCn1c(COc2ccccc2)nc2c1c(=O)n(C)c(=O)n2C` [8-Phenoxymethyl-1,3-dimethyl-7-ethylxantine (8b)] is higher in Ki: 137 nM for the first, greater than 1000 nM for the second. The first binds more tightly here.

`Cn1c(=O)c2c(nc(/C=C/c3ccc(Cl)cc3)n2C)n(C)c1=O` and `Cn1c(=O)c2c(nc(/C=C/c3ccc(Br)cc3)n2C)n(C)c1=O` [(E)-8-(4-Bromostyryl)-1,3,7-trimethylxanthine (4d)] are within 1.5-fold of each other in Ki: 169 nM for the first, 127 nM for the second.

`CCn1c(=O)c2c(nc(CCCc3ccccc3)n2CC)n(CC)c1=O` [8-(3-Phenylpropyl)-1,3,7-triethylxanthine (9d)] and `CCn1c(=O)c2c(nc(CCCc3ccccc3)n2C)n(CC)c1=O` [8-(3-Phenylpropyl)-1,3-diethyl-7-methylxanthine (9c)] cannot be ordered by Ki: greater than 1000 nM for the first, greater than 1000 nM for the second.

`Cn1c(=O)c2c(nc(CCCc3ccccc3)n2C)n(C)c1=O` [8-(3-Phenylpropyl)-1,3,7-trimethylxanthine (9a)] and `CCn1c(CCCc2ccccc2)nc2c1c(=O)n(C)c(=O)n2C` [8-(3-Phenylpropyl)-1,3-dimethyl-7-ethylxanthine (9b)] cannot be ordered by Ki: greater than 1000 nM for the first, greater than 1000 nM for the second.

`CCn1c(=O)c2c(nc(COc3ccccc3)n2CC)n(CC)c1=O` [8-Phenoxymethyl-1,3,7-triethylxanthine (8d)] and `CCn1c(=O)c2c(nc(COc3ccccc3)n2C)n(CC)c1=O` [8-Phenoxymethyl-1,3-diethyl-7-methylxanthine (8c)] cannot be ordered by Ki: greater than 1000 nM for the first, greater than 1000 nM for the second.

Going from `CCn1c(=O)c2c(nc(/C=C/c3ccc(Cl)c(Cl)c3)n2CC)n(CC)c1=O` [(E)-8-(3,4-Dichlorostyryl)-1,3,7-triethylxanthine (7c)] to `CCn1c(=O)c2c(nc(/C=C/c3cccc(Cl)c3)n2CC)n(CC)c1=O` [(E)-8-(3-Chlorostyryl)-1,3,7-triethylxanthine (7a)], the Ki rises from 428 nM to greater than 1000 nM.

`CCn1c(/C=C/c2ccc(Cl)c(Cl)c2)nc2c1c(=O)n(C)c(=O)n2C` [(E)-8-(3,4-Dichlorostyryl)-1,3-dimethyl-7-ethylxanthine (5c)] and `Cn1c(=O)c2c(nc(/C=C/c3ccc(Cl)c(Cl)c3)n2C)n(C)c1=O` [(E)-8-(3,4-Dichlorostyryl)caffeine (4b)] are within 1.5-fold of each other in Ki: 32.9 nM for the first, 44.8 nM for the second.

First: CCn1c(=O)c2c(nc(/C=C/c3cccc(Br)c3)n2CC)n(CC)c1=O [(E)-8-(3-Bromostyryl)-1,3,7-triethylxanthine (7d)]
Second: CCn1c(=O)c2c(nc(/C=C/c3cccc(Br)c3)n2C)n(CC)c1=O [(E)-8-(3-Bromostyryl)-1,3-diethyl-7-methylxanthine (6d)]
The Ki of the first is 9.4-fold higher: 161 nM for the first, 17.2 nM for the second. The second binds more tightly here.

Compared with `Cn1c(=O)c2c(nc(/C=C/c3cccc(Br)c3)n2C)n(C)c1=O` [(E)-8-(3-Bromostyryl)-1,3,7-trimethylxanthine (4c)], `CCn1c(/C=C/c2cccc(Br)c2)nc2c1c(=O)n(C)c(=O)n2C` [(E)-8-(3-Bromostyryl)-1,3-dimethyl-7-ethylxanthine (5d)] is 2-fold higher in Ki: 28.4 nM for the first, 58.2 nM for the second.

First: CCn1c(=O)c2c(nc(/C=C/c3cccc(Cl)c3)n2C)n(CC)c1=O [(E)-8-(3-Chlorostyryl)-1,3-diethyl-7-methylxanthine (6a)]
Second: CCn1c(=O)c2c(nc(/C=C/c3cccc(C(F)(F)F)c3)n2C)n(CC)c1=O [(E)-8-[3-(Trifluoromethyl)styryl]-1,3-diethyl-7-methylxanthine (6f)]
The Ki of the first is 2-fold higher: 24.3 nM for the first, 11.9 nM for the second. The second binds more tightly here.

Compared with `CCn1c(/C=C/c2cccc(Cl)c2)nc2c1c(=O)n(C)c(=O)n2C` [(E)-8-(3-Chlorostyryl)-1,3-dimethyl-7-ethylxanthine (5a)], `CCn1c(/C=C/c2ccc(Cl)cc2)nc2c1c(=O)n(C)c(=O)n2C` [(E)-8-(4-Chlorostyryl)-1,3-dimethyl-7-ethylxanthine (5b)] is 4.4-fold lower in Ki: 421 nM for the first, 95.3 nM for the second.

First: CCn1c(=O)c2c(nc(/C=C/c3ccc(Br)cc3)n2CC)n(CC)c1=O [(E)-8-(4-Bromostyryl)-1,3,7-triethylxanthine (7e)]
Second: CCn1c(=O)c2c(nc(/C=C/c3ccc(Cl)cc3)n2CC)n(CC)c1=O [(E)-8-(4-Chlorostyryl)-1,3,7-triethylxanthine (7b)]
The Ki of the first is lower: 83 nM for the first, greater than 1000 nM for the second.

Compared with `CCn1c(=O)c2c(nc(/C=C/c3ccc(Br)cc3)n2C)n(CC)c1=O` [(E)-8-(4-Bromostyryl)-1,3-diethyl-7-methylxanthine (6e)], `CCn1c(/C=C/c2ccc(Br)cc2)nc2c1c(=O)n(C)c(=O)n2C` [(E)-8-(4-Bromostyryl)-1,3-dimethyl-7-ethylxanthine (5e)] is 19-fold higher in Ki: 28.9 nM for the first, 546 nM for the second.

Compound `CCn1c(=O)c2c(nc(/C=C/c3cccc(C(F)(F)F)c3)n2CC)n(CC)c1=O` [(E)-8-[3-(Trifluoromethyl)styryl]-1,3,7-triethylxanthine (7f)] has a Ki greater than 1000 nM.
